# Data reported in patent publication US9271957B2, “Methods of treating or preventing degenerative joint conditions, osteoarthritis, cartilage damage, and related disorders in companion animals” (HILL'S PET NUTRITION, INC., priority 2008, dated 2016).
# Columns and labels:
# canine bone cells = assay: Genes related to cartilage metabolism altered by lipoic acid in canine bone cells; assay type: in vivo, dogs; settings: 90 days
# Plasma metabolomics = assay type: in vivo; settings: relative to control fed dogs
# Protocol: Metabolomics: Plasma metabolites were analyzed and were compared as fold change relative to the control fed dogs.
# [1] = tested on: genes related to cartilage and energy metabolism; assay: Differential gene expression profile, whole blood RNA on canine 2 Affymetrix genechips; assay type: in vivo, dogs
# From the text: A differential gene expression profile was studied between an AAFCO control food, a food containing fish oil, and a food containing lipoic acid. At a minimum of 1.3 fold change, a list of 1212 genes was generated compared to the AAFCO control and 1896 genes compared to the food containing fish oil at d 30.
# RNA Extraction: Total RNAs were isolated from whole blood samples using the PAXgene RNA isolation kit. All measurements were done with the canine 2 Affymetrix genechips. For statistical analysis, all measurements were normalized with RMA. All analysis was preformed using Partek. An ANOVA t-test was performed for genes that are differentially expressed between the control and test foods were selected based on p-value cutoff 0.1, fold change >+/−1.3.
# Table 4 illustrates the change in genes related to cartilage metabolism and energy metabolism in dogs after being fed a control diet compared with dogs fed a control plus lipoic acid.
# [2] = Body fat of dogs fed food containing lipoic acid; assay type: in vivo; settings: dogs fed a food containing lipoic acid
# From the text: These two markers are known to increase in dogs with osteoarthritis. […] In other words, dogs fed lipoic acid utilized available glucose more efficiently and shifted their metabolism towards mobilization of fat for energy use. […] The following tables show the difference in fat and weight as well as cartilage markers relative to treatment with lipoic acid.
# cartilage markers [3] = assay: Serum cartilage (arthritic) markers measured in the blood by ELISA in dogs fed different foods; assay type: in vivo; settings: for CPII: blood, d 0 as covariate
# Protocol: Thirty (30) dogs were used to determine the effect of lipoic acid when compared to an AAFCO control food or a test food containing fish oil.
# Biomarker Measurements: Serum cartilage markers were measured using ELISA based kits to determine concentrations of cartilage markers. Day 0 was used as a covariate in the analysis to adjust for baseline values.
# Table 2 illustrates the change in blood level of arthritic markers in dogs after being fed a control diet compared with dogs fed a control plus fish oil and a control plus lipoic acid for 30 days and measured again at day 90.
# Table 6 illustrates arthritic makers measured in blood samples for dogs after being fed a control diet compared with dogs fed a pet food including lipoic acid for 90 days.
# cartilage markers [4] = assay: as above; assay type: in vivo
# [5] = lipoic acid vs. control, cartilage metabolism
# [6] = lipoic acid vs. control, energy metabolism
# [7] = lipoic acid vs. fish oil, cartilage metabolism
# [8] = lipoic acid vs. fish oil, energy metabolism
# [9] = vs a similar food without lipoic acid
smiles,measurement,setting,value
"O=C(O)CCCC[C@@H]1CCSS1 (racemic) [Lipoic acid, lipoic acid]",Directional change MMP3 (1582602_at),canine bone cells,down regulation and Down
same,Directional change Prolyl 4-hydroxylase (1600479_at),canine bone cells,up-regulation and up
same,Directional change TIMP2 (1582708_at),canine bone cells,up-regulation and up
same,metabolite hydroxyproline in plasma,Plasma metabolomics,reduced
same,PDK4 gene expression,[1]; dogs fed lipoic acid,increasing
same,glucose transporters gene expression,[1]; dogs fed lipoic acid,upregulation
same,Fold change 12-lipooxygenase,[1]; [5],−1.3
same,Fold change Chondroitan sulfate synthase 1,[1]; [5],1.4
same,Fold change Facilitated glucose transporter 9,[1]; [5],1.4
same,Fold change Prolyl hydroxylase alpha 1,[1]; [5],1.4
same,Fold change Prolyl hydroxylase alpha 2,[1]; [5],1.3
same,Fold change TIMP1,[1]; [5],1.3
same,Fold change chondroitan sulfate proteoglycan 2 (veriscan),[1]; [5],1.5
same,Fold change heparin sulfate N-deacetylase/N-sulfotransferase 2,[1]; [5],1.3
same,Fold change 5′ AMP alpha 1,[1]; [6],1.3
same,Fold change 5′ AMP beta 1,[1]; [6],1.3
same,Fold change 5′ AMP gamma 2,[1]; [6],1.4
same,Fold change Facilitated glucose transporter 1,[1]; [6],1.3
same,Fold change Facilitated glucose transporter 6,[1]; [6],1.3
same,Fold change Fatty acid desaturase 1,[1]; [6],1.9
same,Fold change Hexokinase 3,[1]; [6],1.3
same,Fold change PDK4,[1]; [6],1.4
same,Fold change PPAR gamma,[1]; [6],1.3
same,Fold change Succinyl CoA ligase alpha,[1]; [6],1.3
same,Fold change 12-lipooxygenase,[1]; [7],−1.3
same,Fold change ADAMTS-2,[1]; [7],−1.3
same,Fold change ADAMTS-10,[1]; [7],−1.3
same,Fold change ADAMTS-16,[1]; [7],−1.3
same,Fold change Chondroitan sulfate synthase 1,[1]; [7],1.3
same,Fold change Facilitated glucose transporter 9,[1]; [7],1.4
same,Fold change Fibronectin 1,[1]; [7],1.4
same,Fold change Lysyl hydroxylase,[1]; [7],1.3
same,Fold change MMP2,[1]; [7],−1.3
same,Fold change MMP7,[1]; [7],−1.3
same,Fold change N-acetylgalactosaminyl-transferase 1,[1]; [7],1.3
same,Fold change Transforming growth factor beta receptor 1,[1]; [7],1.3
same,Fold change chondroitan sulfate proteoglycan 2 (veriscan),[1]; [7],1.5
same,Fold change 5′ AMP alpha 1,[1]; [8],1.3
same,Fold change 5′ AMP beta 1,[1]; [8],1.3
same,Fold change 5′ AMP gamma 2,[1]; [8],1.5
same,Fold change Facilitated glucose transporter 1,[1]; [8],1.3
same,Fold change Facilitated glucose transporter 6,[1]; [8],1.4
same,Fold change Hexokinase 3,[1]; [8],1.3
same,Fold change PDK4,[1]; [8],1.6
same,Fold change PPAR gamma,[1]; [8],1.3
same,Fold change SREBP-1,[1]; [8],−1.3
same,Fold change Succinyl CoA ligase alpha,[1]; [8],1.3
same,Fold change Succinyl CoA ligase beta,[1]; [8],1.3
same,Fold change cAMP responsice element modulator,[1]; [8],1.3
same,Body fat,[2],lost fat
same,CPII,cartilage markers [3]; Day 30,986.28 ng/mL
same,CPII,cartilage markers [3]; Day 90,848.0 ng/mL
same,immune status markers,cartilage markers [3]; after 90 days,decreased
same,"arthritic markers (i.e., CPII and CTXII)",cartilage markers [3]; after a 30 day treatment period,reduction
same,"arthritic markers (i.e., CPII and CTXII)",cartilage markers [3]; after a 90 day period,greater reduction
same,carboxy-terminal crosslinked telopeptide fragment of type II collagen,cartilage markers [3]; [9],greater decrease
same,type II collagen C-propeptide,cartilage markers [3]; [9],greater decrease
same,Change CPII,"cartilage markers [4]; Day 30, without covariates",−95.10
same,Change CTXII,"cartilage markers [4]; Day 30, without covariates",−5.60
same,Change CPII,"cartilage markers [4]; Day 90, without covariates",−232.70
same,Change CTXII,"cartilage markers [4]; Day 90, without covariates",−0.59
